From patent US4100346A, “Certain 7(o-amino-methyl- or methylaminomethylphenyl- or cyclohexadienyl- or thienylacetamide)-3[1-carboxymethyl-(or ethyl- or propyl-)-tetrazol-5-ylthiomethyl]-3-cephem-4-carboxylic acids” (Bristol-Myers Company, priority 1976, dated 1978)
In brackets after ≈: the same amount, converted by molar mass. Read-outs that look alike come from different tables or passages of the source.

Key:
[1] = tested on: Enterobacter aerogenes; test: Minimum growth inhibitory and bactericidal concentrations for Enterobacteriaceae; assay type: cell-based; details: Klebsiella aerogenes, inoculum 10^4 cells; for MBC: read-out: MBC, minimum bactericidal concentration; for MIC: read-out: MIC, Minimum growth inhibitory concentration
Description: (§1) Miscellaneous. Methods for determining bactericidal activity and susceptibility to cell-free β-lactamase were those previously used; Leitner et al., BL-S640, A Cephalosporin With a Broad Spectrum of Antibacterial Activity: Properties in vitro, Antimicrob. Agents Chemother. 7:298-305 (1975).
(§2) *MIC, Minimum growth inhibitory concentration; MBC, minimum bactericidal
(§3) concentration; expressed as micrograms per milliliter. The inoculum was […]

[2] = tested on: Enterobacter cloacae; test: as above; assay type: cell-based; details: for MBC: read-out: MBC, minimum bactericidal concentration; for MIC: read-out: MIC, Minimum growth inhibitory concentration
Description: as §1, §2, §3

[3] = tested on: Escherichia coli; test: as above; assay type: cell-based; details: for MBC: read-out: MBC, minimum bactericidal concentration; for MIC: read-out: MIC, Minimum growth inhibitory concentration
Description: as §1, §2, §3

[4] = tested on: Klebsiella pneumoniae; test: as above; assay type: cell-based; details: for MBC: read-out: MBC, minimum bactericidal concentration; for MIC: read-out: MIC, Minimum growth inhibitory concentration
Description: as §1, §2, §3

[5] = tested on: Proteus mirabilis; test: as above; assay type: cell-based; details: for MBC: read-out: MBC, minimum bactericidal concentration; for MIC: read-out: MIC, Minimum growth inhibitory concentration
Description: as §1, §2, §3

[6] = tested on: Proteus rettgeri; test: as above; assay type: cell-based; details: Providencia rettgeri, inoculum 10^4 cells; for MBC: read-out: MBC, minimum bactericidal concentration; for MIC: read-out: MIC, Minimum growth inhibitory concentration
Description: as §1, §2, §3

[7] = tested on: Proteus vulgaris; test: as above; assay type: cell-based; details: Proteus vulgaris, inoculum 10^4 cells; for MBC: read-out: MBC, minimum bactericidal concentration; for MIC: read-out: MIC, Minimum growth inhibitory concentration
Description: as §1, §2, §3

[8] = tested on: Enterobacter cloacae; test: Intramuscular treatment of systemically infected mice; assay type: in vivo; details: im
Description: Treatment of Systemically Infected Mice. The procedures were identical with those published previously [Leitner et al., BL-S640, a Cephalosporin With a Broad Spectrum of Antibacterial Activity: Bioavailability and Therapeutic Properties in Rodents, Antimicrob. Agents Chemother.
(a) the hog gastric mucin used in infections with Staphylococcus aureus No. 2 was purchased from American Laboratories, Inc., Omaha, Neb.

[9] = tested on: Listeria monocytogenes; test: Growth inhibitory activity, antibiotic dilution technique; details: read-out: Minimum inhibitory concentration
[10] = tested on: Klebsiella pneumoniae; test: Effect of inoculum size on susceptibility of Enterobacteriaceae
[11] = tested on: Proteus rettgeri; test: as above; details: Providencia rettgeri
[12] = Enterobacter aerogenes strain 1
[13] = Enterobacter aerogenes strain 2
[14] = Enterobacter aerogenes strain 3
[15] = Enterobacter cloacae strain 3, inoculum 10^4 cells
[16] = Enterobacter cloacae strain 4, inoculum 10^4 cells
[17] = Enterobacter cloacae strain 8, inoculum 10^4 cells
[18] = Escherichia coli strain 1, inoculum 10^4 cells
[19] = Escherichia coli strain 2, inoculum 10^4 cells
[20] = Escherichia coli strain 3, inoculum 10^4 cells
[21] = Escherichia coli strain 4, inoculum 10^4 cells
[22] = Escherichia coli strain 5, inoculum 10^4 cells
[23] = Escherichia coli strain 6, inoculum 10^4 cells
[24] = Klebsiella pneumoniae strain 1, inoculum 10^4 cells
[25] = Klebsiella pneumoniae strain 2, inoculum 10^4 cells
[26] = Klebsiella pneumoniae strain 3, inoculum 10^4 cells
[27] = Klebsiella pneumoniae strain 4, inoculum 10^4 cells
[28] = Klebsiella pneumoniae strain 5, inoculum 10^4 cells
[29] = Klebsiella pneumoniae strain 6, inoculum 10^4 cells
[30] = Proteus mirabilis strain 1, inoculum 10^4 cells
[31] = Proteus mirabilis strain 2, inoculum 10^4 cells
[32] = Proteus mirabilis strain 3, inoculum 10^4 cells
[33] = Proteus mirabilis strain 4, inoculum 10^4 cells
[34] = Proteus mirabilis strain 5, inoculum 10^4 cells

`O=C(Cc1cccs1)N[C@@H]1C(=O)N2C(C(=O)[O-])=C(C[n+]3ccccc3)CS[C@H]12` [Cephaloridine] gave an MBC [1, 12] of over 250 µg/mL, an MIC [1, 12] of over 250 µg/mL and an MBC [1, 13] of over 250 µg/mL. It also gave an MIC [1, 13] of 250 µg/mL (≈ 602 µM), an MBC [1, 14] of 250 µg/mL (≈ 602 µM) and an MIC [1, 14] of 250 µg/mL (≈ 602 µM). The MBC [2, 15] was 16 µg/mL (≈ 38.5 µM), the MIC [2, 15] was 16 µg/mL (≈ 38.5 µM) and the MBC [2, 16] was over 250 µg/mL. For the same compound, the MIC [2, 16] was over 250 µg/mL, the MBC [2, 17] was over 250 µg/mL and the MIC [2, 17] was over 250 µg/mL. The MBC [3, 18] was 4 µg/mL (≈ 9.63 µM), the MIC [3, 18] was 4 µg/mL (≈ 9.63 µM) and the MBC [3, 19] was 16 µg/mL (≈ 38.5 µM). It also gave an MIC [3, 19] of 16 µg/mL (≈ 38.5 µM), an MBC [3, 20] of 2 µg/mL (≈ 4.81 µM) and an MIC [3, 20] of 2 µg/mL (≈ 4.81 µM). The MBC [3, 21] was 4 µg/mL (≈ 9.63 µM), the MIC [3, 21] was 4 µg/mL (≈ 9.63 µM) and the MBC [3, 22] was 4 µg/mL (≈ 9.63 µM). It also gave an MIC [3, 22] of 4 µg/mL (≈ 9.63 µM), an MBC [3, 23] of 8 µg/mL (≈ 19.3 µM) and an MIC [3, 23] of 4 µg/mL (≈ 9.63 µM). The MBC [4, 24] was 4 µg/mL (≈ 9.63 µM), the MIC [4, 24] was 2 µg/mL (≈ 4.81 µM) and the MBC [4, 25] was 4 µg/mL (≈ 9.63 µM). For the same compound, the MIC [4, 25] was 4 µg/mL (≈ 9.63 µM), the MBC [4, 26] was 2 µg/mL (≈ 4.81 µM) and the MIC [4, 26] was 2 µg/mL (≈ 4.81 µM). The MBC [4, 27] was 4 µg/mL (≈ 9.63 µM), the MIC [4, 27] was 4 µg/mL (≈ 9.63 µM) and the MBC [4, 28] was 8 µg/mL (≈ 19.3 µM). It also gave an MIC [4, 28] of 8 µg/mL (≈ 19.3 µM), an MBC [4, 29] of 2 µg/mL (≈ 4.81 µM) and an MIC [4, 29] of 2 µg/mL (≈ 4.81 µM). For the same compound, the MBC [5, 30] was 16 µg/mL (≈ 38.5 µM), the MIC [5, 30] was 8 µg/mL (≈ 19.3 µM) and the MBC [5, 31] was 8 µg/mL (≈ 19.3 µM). It also gave an MIC [5, 31] of 8 µg/mL (≈ 19.3 µM), an MBC [5, 32] of 8 µg/mL (≈ 19.3 µM) and an MIC [5, 32] of 8 µg/mL (≈ 19.3 µM). The MBC [5, 33] was 8 µg/mL (≈ 19.3 µM), the MIC [5, 33] was 8 µg/mL (≈ 19.3 µM) and the MBC [5, 34] was 8 µg/mL (≈ 19.3 µM). It also gave an MIC [5, 34] of 4 µg/mL (≈ 9.63 µM), an MBC ([6]; Proteus rettgeri strain 2) of 0.5 µg/mL (≈ 1.2 µM) and an MIC ([6]; Proteus rettgeri strain 2) of 0.5 µg/mL (≈ 1.2 µM). For the same compound, the MBC ([6]; Proteus rettgeri strain 3) was over 250 µg/mL, the MIC ([6]; Proteus rettgeri strain 3) was 32 µg/mL (≈ 77 µM) and the MBC ([7]; Proteus vulgaris strain 1) was 8 µg/mL (≈ 19.3 µM). For the same compound, the MIC ([7]; Proteus vulgaris strain 1) was 8 µg/mL (≈ 19.3 µM), the MBC ([7]; Proteus vulgaris strain 2) was 16 µg/mL (≈ 38.5 µM) and the MIC ([7]; Proteus vulgaris strain 2) was 8 µg/mL (≈ 19.3 µM). For the same compound, the MBC ([7]; Proteus vulgaris strain 4) was 16 µg/mL (≈ 38.5 µM), the MIC ([7]; Proteus vulgaris strain 4) was 8 µg/mL (≈ 19.3 µM) and the ED50 ([8]; Enterobacter cloacae, 3.5 h, read-out: PD50 /treatment) was 200 mg/kg. It also gave a PD50 /treatment ([8]; mouse, in vivo) of over 400 mg/kg, an MIC [9] of 0.91 µg/mL (≈ 2.19 µM) and an MIC ([10]; read-out: Minimum Inhibitory Concentration, Klebsiella pneumoniae strain 1, A, Inoculum of 10^2 organisms) of 2 µg/mL (≈ 4.81 µM). The MIC ([10]; read-out: Minimum Inhibitory Concentration, Klebsiella pneumoniae strain 1, B, Inoculum of 10^6 organisms) was 4 µg/mL (≈ 9.63 µM), the MIC ([10]; read-out: Minimum Inhibitory Concentration, Klebsiella pneumoniae strain 2, A, Inoculum of 10^2 organisms) was 2 µg/mL (≈ 4.81 µM) and the MIC ([10]; read-out: Minimum Inhibitory Concentration, Klebsiella pneumoniae strain 2, B, Inoculum of 10^6 organisms) was 8 µg/mL (≈ 19.3 µM). It also gave an MIC ([10]; read-out: Minimum Inhibitory Concentration, Klebsiella pneumoniae strain 3, A, Inoculum of 10^2 organisms) of 2 µg/mL (≈ 4.81 µM), an MIC ([10]; read-out: Minimum Inhibitory Concentration, Klebsiella pneumoniae strain 3, B, Inoculum of 10^6 organisms) of 16 µg/mL (≈ 38.5 µM) and an MIC ([10]; read-out: Minimum Inhibitory Concentration, Klebsiella pneumoniae strain 4, A, Inoculum of 10^2 organisms) of 2 µg/mL (≈ 4.81 µM). The MIC ([10]; read-out: Minimum Inhibitory Concentration, Klebsiella pneumoniae strain 4, B, Inoculum of 10^6 organisms) was 8 µg/mL (≈ 19.3 µM), the MIC ([10]; read-out: Minimum Inhibitory Concentration, Klebsiella pneumoniae strain 5, A, Inoculum of 10^2 organisms) was 2 µg/mL (≈ 4.81 µM) and the MIC ([10]; read-out: Minimum Inhibitory Concentration, Klebsiella pneumoniae strain 5, B, Inoculum of 10^6 organisms) was 16 µg/mL (≈ 38.5 µM). For the same compound, the MIC ([10]; read-out: Minimum Inhibitory Concentration, Klebsiella pneumoniae strain 6, A, Inoculum of 10^2 organisms) was 2 µg/mL (≈ 4.81 µM), the MIC ([10]; read-out: Minimum Inhibitory Concentration, Klebsiella pneumoniae strain 6, B, Inoculum of 10^6 organisms) was 16 µg/mL (≈ 38.5 µM) and the MIC ([11]; read-out: Minimum Inhibitory Concentration, Proteus rettgeri strain 1, A, Inoculum of 10^2 organisms) was 4 µg/mL (≈ 9.63 µM). It also gave an MIC ([11]; read-out: Minimum Inhibitory Concentration, Proteus rettgeri strain 1, B, Inoculum of 10^6 organisms) of 250 µg/mL (≈ 602 µM), an MIC ([11]; read-out: Minimum Inhibitory Concentration, Proteus rettgeri strain 2, A, Inoculum of 10^2 organisms) of 0.25 µg/mL (≈ 0.602 µM) and an MIC ([11]; read-out: Minimum Inhibitory Concentration, Proteus rettgeri strain 2, B, Inoculum of 10^6 organisms) of over 250 µg/mL. The MIC ([11]; read-out: Minimum Inhibitory Concentration, Proteus rettgeri strain 3, A, Inoculum of 10^2 organisms) was 16 µg/mL (≈ 38.5 µM) and the MIC ([11]; read-out: Minimum Inhibitory Concentration, Proteus rettgeri strain 3, B, Inoculum of 10^6 organisms) was over 250 µg/mL.
